Where a name gives a salt, the structure may show the parent alone.
Key:
Format in all cases: physicochemical
[1] = Specific surface area by multipoint BET measurement; conditions: for A (specific surface area): pulverized powders, dihydrochloride
Experimental: In the present application, the specific surface area A used herein refers to the total area per unit mass (m^2/g), as determined by multipoint BET specific surface area measurement.
The specific surface area was determined by multipoint BET specific surface area measurement, in which the absolute adsorption quantity of nitrogen in a sample was measured under different partial pressures, and the single-layer adsorption quantity was calculated by the BET theory, thus giving the specific surface area.

[2] = Particle-size distribution by laser particle size analyzer; conditions: laser particle-size distribution of pulverized powders; dihydrochloride
Source text: “X10” as used herein refers to the particle size for 10% of the particles in the particle size distribution, i.e., the fraction of particles smaller than this particle size accounts for 10% of all particles; “X50” refers to the particle size for 50% of the particles in the particle size distribution, i.e., the fraction of particles smaller than this particle size accounts for 50% of all particles; “X90” refers to a particle size for 90% of the particles in the particle size distribution, i.e., the fraction of particles smaller than this particle size accounts for 90% of all particles.
The particle-size distribution of the materials was determined by laser. Instrument: fully automatic dry and wet two-in-one laser particle size analyzer, VIBRI (HELOSBR).

[3] = Dissolution properties of powders by basket method; conditions: 100 rpm, dihydrochloride; for Cumulative dissolution % (0.1 mol/L hydrochloric acid): 1000 mL
Experimental: The dissolution properties of powders 1 and 2 in 1000 mL of 0.1 mol/L aqueous hydrochloric acid solution and a standard medium of 10 mM phosphate buffer containing 0.075% SDS, pH 6.8 were measured by basket method at 100 rpm and compared.

[4] = Determination of solubility (saturation concentration); conditions: for solubility thermodynamic at 24 h: aqueous buffer, thermodynamic from solid, shaker at 37° C.
Experimental: 14.16 mg of the crystalline powder of the compound of the formula II acquired in Example 1 was dissolved, shaken overnight (24 hours) on a shaker at 37° C. and cooled to room temperature. The saturation concentration was measured using the supernatant. As a result, the saturation concentrations in the phosphoric acid solutions at pH 6.8 and 7.0 for 24 hours were 0.8 and 0.3 μg/mL, respectively.

A (specific surface area) [1] [m^2/g] | X50 [2] [μm] | X90 [2] [μm] | Cumulative dissolution % (10 mM phosphate buffer containing 0.075% SDS, pH 6.8) ([3]; 3 min) [%] | Cumulative dissolution % (0.1 mol/L hydrochloric acid) ([3]; 3 min) [%] | Cumulative dissolution % (10 mM phosphate buffer containing 0.075% SDS, pH 6.8) ([3]; 5 min) [%] | Cumulative dissolution % (0.1 mol/L hydrochloric acid) ([3]; 5 min) [%] | specific surface area ([1]; bulk crystal recrystallized in ethanol (Comparative Example 1)) [m^2/g] | Biopharmaceutical Classification System (BCS) solubility classification [4] | solubility thermodynamic at 24 h ([4]; phosphoric acid solution pH 6.8, 24 hours) [µg/mL] | solubility thermodynamic at 24 h ([4]; phosphoric acid solution pH 7.0, 24 hours) [µg/mL] | Structure (SMILES)
11.09 ± 0.04 | 3.96 | 64.89 | 77.4 | 89.6 | 90.2 | 94.2 | – | – | – | – | COc1cc2c(Oc3ccc4[nH]c(C)cc4c3F)ccnc2cc1OCC1(N)CC1 [Powder 1, Anlotinib dihydrochloride]
– | – | – | – | – | – | – | 3.4750 | – | – | – | COc1cc2c(Oc3ccc4[nH]c(C)cc4c3F)ccnc2cc1OCC1(N)CC1 [Anlotinib dihydrochloride, reference compound]
13.07 ± 0.05 | 2.66 | 14.01 | 80.1 | 93.7 | 86.4 | 95.8 | – | – | – | – | COc1cc2c(Oc3ccc4[nH]c(C)cc4c3F)ccnc2cc1OCC1(N)CC1 [Powder 2, Anlotinib dihydrochloride]
– | – | – | – | – | – | – | – | low solubility | 0.8 | 0.3 | COc1cc2c(Oc3ccc4[nH]c(C)cc4c3F)ccnc2cc1OCC1(N)CC1 [Example 1, Anlotinib dihydrochloride]

— patent US11731955B2, “Crystal habit of quinoline derivative and preparation method for crystalline powder thereof” (CHIA TAI TIANQING PHARMACEUTICAL GROUP CO., LTD, priority 2018, dated 2023)
